Source: US20080171783A1, “COMPOSITIONS AND METHODS FOR TREATING HYPERPROLIFERATIVE DISEASE” (Migenix Inc., priority 2006, published 2008)

Legend:
Calf polymerase alpha = target: T1, Calf polymerase alpha (Bos taurus, UniProt A0AAA9TD94); assay: Calf polymerase alpha inhibition (Replizyme kit); format: biochemical; details: for IC50: dose response; for inhibition at 10 µM: single point screening
T1 construct: purchased Replizyme Ltd (Heslington, York, UK)
T1 sequence (A0AAA9TD94 1-1441): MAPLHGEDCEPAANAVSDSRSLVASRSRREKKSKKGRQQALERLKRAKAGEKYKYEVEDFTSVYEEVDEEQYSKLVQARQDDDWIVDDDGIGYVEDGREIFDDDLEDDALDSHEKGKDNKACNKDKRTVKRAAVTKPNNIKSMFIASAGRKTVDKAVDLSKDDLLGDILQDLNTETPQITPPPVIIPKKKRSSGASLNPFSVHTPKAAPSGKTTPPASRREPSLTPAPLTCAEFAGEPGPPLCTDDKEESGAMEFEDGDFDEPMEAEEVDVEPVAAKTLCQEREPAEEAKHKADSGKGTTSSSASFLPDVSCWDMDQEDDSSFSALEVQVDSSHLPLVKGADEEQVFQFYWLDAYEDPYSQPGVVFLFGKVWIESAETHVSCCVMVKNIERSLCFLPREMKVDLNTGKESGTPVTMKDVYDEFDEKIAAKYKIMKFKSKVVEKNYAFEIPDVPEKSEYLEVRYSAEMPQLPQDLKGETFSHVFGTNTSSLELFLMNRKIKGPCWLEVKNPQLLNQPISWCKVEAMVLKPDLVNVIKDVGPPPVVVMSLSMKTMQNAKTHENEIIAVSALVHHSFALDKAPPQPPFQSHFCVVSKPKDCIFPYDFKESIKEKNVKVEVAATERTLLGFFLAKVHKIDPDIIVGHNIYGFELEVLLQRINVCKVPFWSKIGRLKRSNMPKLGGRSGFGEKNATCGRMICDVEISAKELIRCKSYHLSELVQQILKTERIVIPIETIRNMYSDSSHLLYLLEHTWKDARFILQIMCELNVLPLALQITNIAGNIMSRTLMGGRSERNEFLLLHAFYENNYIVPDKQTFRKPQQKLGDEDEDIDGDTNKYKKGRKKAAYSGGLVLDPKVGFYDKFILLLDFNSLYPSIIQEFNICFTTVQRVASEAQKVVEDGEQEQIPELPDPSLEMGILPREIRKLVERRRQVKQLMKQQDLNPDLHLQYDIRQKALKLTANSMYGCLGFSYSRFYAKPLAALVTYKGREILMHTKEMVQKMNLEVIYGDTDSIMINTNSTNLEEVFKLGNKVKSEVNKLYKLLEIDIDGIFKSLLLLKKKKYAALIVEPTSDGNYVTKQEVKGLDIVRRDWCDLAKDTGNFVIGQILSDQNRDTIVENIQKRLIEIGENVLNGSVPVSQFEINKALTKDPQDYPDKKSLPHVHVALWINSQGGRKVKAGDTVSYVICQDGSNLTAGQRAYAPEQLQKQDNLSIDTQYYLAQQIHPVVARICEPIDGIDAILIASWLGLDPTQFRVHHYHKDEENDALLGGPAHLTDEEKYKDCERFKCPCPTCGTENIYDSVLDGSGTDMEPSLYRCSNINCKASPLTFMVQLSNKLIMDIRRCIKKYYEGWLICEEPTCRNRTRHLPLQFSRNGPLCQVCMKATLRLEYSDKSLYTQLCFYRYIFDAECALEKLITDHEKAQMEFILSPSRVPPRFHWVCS
Protocol: Calf polymerase alpha and human polymerase alpha investigations were performed with a kit available from Replizyme Ltd (Heslington, York, UK).

[1] = Cytotoxicity Huh-7 cells (MTS/PMS); format: cell-based; details: human, 3-day incubation
Protocol: Cytotoxicity of compounds for use in treating hyperproliferative diseases or disorders was tested in Huh-7 cells using tetrazolium salt MTS combined with the electron acceptor PMS in a 96-well format. Six doses of each compound was tested, starting at about 1.2 μM to 0.4 μM serially diluted in a final 1% DMSO solution in DMEM/F12 media. Terfenadine was used as a positive control. Cells were seeded at 2.5×10^5 cells/mL in each well of the 96-well plates in a final volume of 0.1 mL, and then incubated at 37° C. in the presence of 5% CO2 overnight. Compounds (in media) were added the following day and the treated cells were incubated another 3-days at 37° C. in the presence of 5% CO2. After the 3-day incubation, 20 μL of MTS/PMS (3-(4,5-dimethylthiazol-2-yl)-5-(3-carboxymethoxy-phenyl)-2-(4-sulfophenyl)-2H-tetrazolium) was added to each well. After about a one to four hour incubation of MTS/PMS at 37° C. and 5% CO2—that is, until an OD490 absorbance of ≧0.6 for the wells containing cells with media only, the level of cytotoxicity at each concentration was calculated. […] Dose response results from the cytotoxicity assay (CC50) are provided in Table 4 in comparison with IC50 data (from Table 2)

Compound	IC50 (Calf polymerase alpha) [µM]	CC50 at 3 days [1] [µM]	inhibition at 10 µM (Calf polymerase alpha) [%]
Cc1ccc(NC(=O)[C@H](CCCCN)NC(=O)Nc2ccc(OCc3ccccc3)cc2)cc1 [Compound 2, (S)-6-AMINO-2-[3-(4-BENZYLOXY-PHENYL)-UREIDO]-HEXANOIC ACID P-TOLYLAMIDE]	13	22.2	
CC(C)(C)c1ccc(NC(=O)[C@H](CCCCN)NC(=O)OCC2c3ccccc3-c3ccccc32)cc1 [Compound 105, (S)-[5-AMINO-1-(4-TERT-BUTYL-PHENYLCARBAMOYL)-PENTYL]-CARBAMIC ACID 9H-FLUOREN-9-YLMETHYL ESTER]			100
Cc1ccc(NC(=O)[C@@H](CCCCN)NC(=O)Nc2ccc3c(c2)Cc2ccccc2-3)cc1 [Compound 173, (R)-6-AMINO-2-[3-(9H-FLUOREN-2-YL)-UREIDO]-HEXANOIC ACID P-TOLYLAMIDE]			99
COC(=O)c1ccc(COc2ccc(NC(=O)N[C@@H](CCCCN)C(=O)Nc3ccc(C)cc3)cc2)cc1 [Compound 199, (S)-4-{4-[3-(5-AMINO-1-P-TOLYLCARBAMOYL-PENTYL)-UREIDO]-PHENOXYMETHYL}-BENZOIC ACID METHYL ESTER]	7.9	53	39.7
Cc1cc2cc(NC(=O)[C@H](CCCNC(=O)CN)NC(=O)Nc3ccc4c(c3)Cc3ccccc3-4)ccc2[nH]1 [Compound 297, (S)-5-(2-AMINO-ACETYLAMINO)-2-[3-(9H-FLUOREN-2-YL)-UREIDO]-PENTANOIC ACID (2-METHYL-1H-INDOL-5-YL)-AMIDE]	26	9.9	16.5
